{
  "source": "patent US20250025490A1",
  "about": "“INDUCTION OF TRAINED IMMUNITY FOR THE TREATMENT OF HYPERPROLIFERATIVE DISORDERS” (priority 2021, published 2025)",
  "format_in_all_cases": "cell-based, mice",
  "key": {"peritoneal macrophages [1]": {"test_system": "peritoneal macrophages", "test": "In vitro training and re-stimulation of peritoneal macrophages (Example 2), TNF-α ELISA", "experimental": "Isolation and culture of peritoneal macrophages. Mice were euthanized with CO2 inhalation and injected i.p. with 5 ml of sterile cold, complete DMEM medium (Sigma Aldrich) followed by gentle massage of the peritoneum. The peritoneal fluid was then collected, centrifuged at 1600 rpm for 5 min. The cell pellet was washed, counted, and plated at appropriate numbers in complete DMEM. The cells were incubated for 2-4 hours at 37° C. and 5% CO2 to allow peritoneal macrophages attached to the plates. The floating cells were aspirated and plates were gently washed with sterile pre-warmed medium and then added with fresh complete DMEM. For comparison studies between different mouse strains, peritoneal cells were stained with viability dye and anti-F4/80 antibodies (Biolegend) and F4/80^+ macrophages were sorted by FACS Aria III (BD Bioscience).\nIn vitro training and re-stimulation of peritoneal macrophages. Peritoneal macrophages were treated with 25 μg/ml of WGP or polystyrene beads (3 μm, Sigma-Aldrich) and incubated for 24 h at 37°° C. with 5% CO2. Macrophages were then washed with pre-warmed complete DMEM at least twice to remove excess WGP or polystyrene beads, added with fresh complete DMEM and incubated 6 days. On day 7, macrophages were re-stimulated with different stimuli such as LPS (10 ng/ml) (Sigma), tumor cells, tumor cell culture supernatants (40%) or rMIF (100 ng/ml) (kindly provided by Dr. Robert Mitchell) for 24 h. The culture supernatants were harvested and assayed for TNF-α by ELISA. For cell culture supernatants, tumor cell lines including LLC, B16F10, and EL4, and control cell line MLE-12 were used.\nThese cell lines were cultured (1 million/4 ml complete DMEM) in a 6-well plate and incubated for 72 h. The supernatants were harvested and stored at −80° C. in aliquots.\nELISA for TNF-α and MIF. TNF-α in the culture supernatants was measured using TNF-α ELISA kit (Biolegend) and MIF levels in the culture supernatants were quantified using mouse MIF ELISAkit (R&D Systems) per the manufacturer's instruction.\nIn vitro training with S1P. Peritoneal macrophages were stimulated with 200 nM or 300 nM of S1P for 24 h at 37° C. and 5% CO2. The macrophages were then washed and allowed for resting. On day 7, the macrophages were stimulated with LPS (10 ng/ml) or LLC culture supernatant (40%) for 24 h and the supernatants were collected for the quantification of TNF-α using ELISA. For another set of in vitro-training experiment, macrophages were trained with S1P in the presence of Mdivi-1 (10 μM) during S1P training and throughout the resting period. Cells were restimulated with LPS and the supernatants were collected to determine TNF-α levels by ELISA.\n[…] The inhibitors were further added to the macrophage cultures and incubated at 37° C. and 5% CO2 for 6 more days. On day 7, the macrophages were washed once with pre-warmed complete DMEM and added LPS (10 ng/ml) or LLC culture supernatant (40%) for re-stimulation."}, "KPC tumor cells": {"test_system": "KPC tumor cells", "test": "Cytotoxicity assay of pancreatic CD11b+ cells against KPCLuc+ cells", "conditions": "NAC 1 mM", "experimental": "The pancreas from WGP and PBS treated mice were harvested and the CD11b^+ populations were isolated using magnetic CD11b^+ MicroBeads (Miltenyi Biotec) and an autoMACS Pro Separator (Miltenyi Biotec). Purified CD11b^+ cells were then washed and counted, and these were plated at a ratio of 1:20 tumor:effector cells in a 96 well plate. All experimental samples were run in triplicate. After plating the CD11b^+ cells, the ROS inhibitor […] (NAC) (Sigma Aldrich) was added to one set of PBS and WGP derived cells at 1 mM for 1 hour before the addition of 5000 luciferase expressing KPC^+ pancreatic tumor cells to all wells. After 24 hours, of coculture, the plates were centrifuged and 20 μL of the supernatant was mixed with 100 μL of the Luciferase Assay Reagent (Promega). Luciferase activity measured in the supernatant correlated with tumor cells that had been killed by the effector cells and was measured using a luminometer (Femtomaster FB 12, Zylux Corporation). The spontaneous luciferase signal from plated tumor cells was subtracted from the measurement of the supernatant. Luciferase values are represented as Relative Light Units (RLUs)."}, "peritoneal macrophages [2]": {"test_system": "peritoneal macrophages", "test": "Mitochondrial ROS quantitation (MitoSox Red)", "conditions": "peritoneal macrophages, 24 h", "experimental": "(§1) Mitochondrial ROS quantitation. Peritoneal macrophages were treated with WGP or S1P in the presence or absence of Mdivi-1 and incubated at 37° C. with 5% CO2 for 24 h. The cells were then harvested, washed with PBS and pelleted by centrifugation at 1600 rpm for 5 min at room temperature. The pellets were then stained with MitoSOX Red dye (5 μM) (Invitrogen) at 37° C. for 15 min. The cells were washed with pre-warmed HBSS followed by another wash with PBS at room temperature. The cells were then stained with viability dye and anti-F4/80 and then acquired by flow cytometry. Flow cytometry for p-Drp-1. Peritoneal macrophages were treated with WGP (25 μg/ml) or S1P (1 μM) and incubated at 37° C. with 5% CO2 for 3-4 h. Following the completion of incubation, the cells were quickly washed with cold PBS to stop the activation. The cells were harvested and washed with PBS. The cells were then fixed with 4% formaldehyde for 15 min at room temperature, washed with PBS and permeabilized using ice-cold 100% methanol on ice for a minimum of 10 min. The cells were then stained with primary antibody (p-Drp1) (Cell Signaling) for 1 hour at room temperature followed by secondary antibody (Anti-rabbit IgG) (Biolegend) for 30 min at room temperature as instructed in the Cell Signaling phospho-stain protocol and analyzed using flow cytometry."}, "Drp-1": {"test_system": "Drp-1", "test": "p-Drp-1 / Drp-1 by flow cytometry and Western blot", "experimental": "as §1\nWestern blot analysis for total Drp-1 and p-Drp-1. […]"}},
  "data": [
    {"smiles": "CCCC[C@@H](C)[C@@H](OC(=O)C[C@@H](CC(=O)O)C(=O)O)[C@H](C[C@@H](C)C[C@H](O)CCCC[C@@H](O)C[C@H](O)[C@H](C)N)OC(=O)C[C@@H](CC(=O)O)C(=O)O", "note": "[Fumonisin-B1]", "values": [
      {"measurement": "effect on WGP-mediated trained response (TNF-α)", "setting": "peritoneal macrophages [1]; Fumonisin-B1 25 μM, LPS and LLC supernatants", "result": "abrogated WGP-mediated trained response"}
    ]},
    {"smiles": "CC(=O)N[C@@H](CS)C(=O)O", "note": "[NAC, N-Acetyl Cysteine]", "values": [
      {"measurement": "effect of ROS inhibition on WGP-elicited cytotoxicity", "setting": "KPC tumor cells", "result": "completely abrogated the WGP-elicited increase in cytotoxicity"}
    ]},
    {"smiles": "CCCCCCCCCCCCC/C=C/[C@@H](O)[C@@H](N)COP(=O)(O)O", "note": "[S1P, sphingosine-1-phosphate]", "values": [
      {"measurement": "TNF-α production of macrophages trained with S1P", "setting": "peritoneal macrophages [1]; S1P 200 nM or 300 nM, LPS or LLC supernatant restimulation", "result": "showed significantly higher TNF-α production compared to the untrained controls"},
      {"measurement": "mtROS production", "setting": "peritoneal macrophages [2]", "result": "exhibited an enhanced mtROS production"},
      {"measurement": "phosphorylation of Drp-1", "setting": "Drp-1; peritoneal macrophages", "result": "significantly increased p-Drp-1 in macrophages"}
    ]},
    {"smiles": "O=C(NCc1ccncc1)C12CC3CC(C1)CC(c1ccc(Cl)cc1)(C3)C2", "note": "[Sphk2i]", "values": [
      {"measurement": "effect on WGP trained responses (TNF-α)", "setting": "peritoneal macrophages [1]; Sphk2i 25 μM or 50 μM, LPS and LLC supernatant", "result": "completely attenuated the trained responses"},
      {"measurement": "effect on p-Drp-1 in WGP-treated macrophages", "setting": "Drp-1; Sphk2i 50 μM, 3 h and 6 h", "result": "decreased the level of p-Drp-1 but not total Drp-1"}
    ]}
  ]
}
